Test results published in US12102695B2, “Half-curcuminoids as amyloid-beta pet imaging agents” (The General Hospital Corporation, priority 2016, dated 2024).

How the values were obtained:
[1] = Fluorescence spectrum of the probe; format: physicochemical
Experimental: (§1) To record the fluorescence response of CRANAD-101 with Aβs, the following procedure was used. Step 1: 1.0 mL of PBS buffer was added to a quartz cuvette as a blank control and its fluorescence was recorded with the same parameters as for CRANAD-101. Step 2: The fluorescence emission spectrum of a CRANAD-101 solution (1.0 mL, 250 nM) was recorded with excitation at 420 nm and emission from 450 to 800 nm. Step 3: To the CRANAD-101 solution from Step 2, 10 μL Aβs (25 μM) was added (final concentration 250 nM). The emission spectra was recorded (Excitation=420 nm, Emission=450-800 nm). The final spectra from Steps 2 and 3 were corrected using the blank control from Step 1.
(§2) The emission peak of CRANAD-101 was approximately 550 nm, and its excitation peak was approximately 420 nm. To confirm whether CRANAD-101 was responsive to Aβs, including monomers, dimers, oligomers, and aggregates, PBS buffer was used as a blank, CRANAD-101 (250 nM, final concentration) was added in PBS buffer and the fluorescence intensity was recorded. Next, Aβ monomer (250 nM, final concentration) was added, and the fluorescence intensity was recorded. The same procedure was then performed for Aβ dimers, Aβ oligomers, and Aβ aggregates. The binding constant (Kd) of CRANAD-101 was also measured for Aβs.

[2] = tested on: diffusible Aβ deposits; test: Fluorescence microscopy of AD patient brain slice; design: species or system human; conditions: FIG. 3D
[3] = target: T1, Aβ42 monomers (Homo sapiens, UniProt P05067); test: Binding constant (Kd) by fluorescence, Aβ42 monomers; conditions: PBS pH 7.4
T1 construct: Synthetic Aβ peptides (1-40/42) were purchased from rPeptide; purchased rPeptide (Bogart, Ga.); host or cells: synthetic peptide
T1 sequence (P05067 672-713 limits assumed): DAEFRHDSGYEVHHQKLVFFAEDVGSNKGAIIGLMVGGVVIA
Experimental: (§3) Starting materials and solvents used in the Examples were purchased from commercial vendors and used without further purification, unless otherwise noted. The pH of the PBS buffer was 7.4. Column chromatography was performed on silica gel (SiliCycle Inc., 60 Å, […]) slurry packed into glass columns. Synthetic Aβ peptides (1-40/42) were purchased from rPeptide (Bogart, Ga., 30622). Aggregates for in vitro studies were generated by the slow stirring of Aβ40 in PBS buffer for 3 days at room temperature. CRANAD-101F (Example 1) was dissolved in DMSO to prepare a 25.0 μM stock solution. ^1H and ^13C NMR spectra were recorded at […] and 125 MHz, respectively, and reported in ppm downfield from tetramethylsilane (TMS). Fluorescence measurements were performed using an F-4500 fluorescence spectrophotometer (Hitachi). […]
as §1, with “Step 3: To the CRANAD-101 solution from Step 2, 10 μL Aβs (25 μM) was added (final concentration 250 nM).” left out, “The final spectra from Steps 2 and 3 were corrected using the blank control from Step 1.” left out

[4] = target: T2, Aβ42 oligomers (Homo sapiens, UniProt P05067); test: Binding constant (Kd) by fluorescence, Aβ42 oligomers; conditions: PBS pH 7.4
T2 construct: Synthetic Aβ peptides (1-40/42) were purchased from rPeptide; purchased rPeptide (Bogart, Ga.); host or cells: synthetic peptide
T2 sequence (P05067 672-713 limits assumed): as above
Experimental: as §3
as §1, with “Step 3: To the CRANAD-101 solution from Step 2, 10 μL Aβs (25 μM) was added (final concentration 250 nM).” left out, “The final spectra from Steps 2 and 3 were corrected using the blank control from Step 1.” left out

[5] = Two-photon microscopic imaging of wild type mouse (BBB penetration); format: in vivo; conditions: WT mouse
Experimental: (§4) To investigate whether CRANAD-101 was capable of penetrating brain blood barrier (BBB), two-photon microscopic imaging was conducted using a 15-month old wild type (WT) mouse. A mouse ([…]) was anesthetized with Ketamine/xylazine (70 mg/kg) and a cranial imaging window was surgically prepared. CRANAD-101 (2.0 mg/kg in a fresh solution containing 15% CREMOPHOR EL®, 15% DMSO and 70% PBS) was injected intravenously at time=0 min by a bolus injection during image acquisition. Two-photon fluorescence excitation was performed with a 900-nm laser (Prairie Ultima). Imaging was performed using a two-photon microscope (Prairie Technologies) equipped with a 20× water immersion objective (N.A. 1.0, Zeiss). Images were collected for 15 seconds per frame 512×512 μm matrix for 45 min with a green (500-550 nm) channel.

[6] = tested on: Aβ; test: In vivo PET imaging, 14-month old APP/PS1 and WT mice; design: species or system mouse; conditions: i.v.
Experimental: In vivo PET imaging was conducted with 14-month old APP/PS1 mice (Charles River Laboratories, MA) and age-matched wild-type (WT) mice. Mice were injected via tail-vein with 100 μL of 20-30 μCi of [^18F]CRANAD-101 (Example 2) in 10% ethanol saline. MicroPET imaging experiments were performed on a Sophie Biosciences microPET G4 scanner (Culver City, Calif., USA). 60-Minute dynamic imaging was performed under general anesthesia (isoflurane/O2). Imaging analysis was conducted with Amide.
In vivo PET imaging was conducted with 14-month old APP/PS1 mice and age-matched WT mice. Mice were injected (i.v.) with 100 μL of 20-30 μCi of [^18F]CRANAD-101 in 10% ethanol saline. The specific activity was determined to be […] at the time of injection.

[7] = target: T3, Aβ42 dimers (Homo sapiens, UniProt P05067); test: Binding constant (Kd) by fluorescence, Aβ42 dimers; conditions: PBS pH 7.4
T3 construct: Synthetic Aβ peptides (1-40/42) were purchased from rPeptide; purchased rPeptide (Bogart, Ga.); host or cells: synthetic peptide
T3 sequence (P05067 672-713 limits assumed): as above
Experimental: as §3
as §1, with “Step 3: To the CRANAD-101 solution from Step 2, 10 μL Aβs (25 μM) was added (final concentration 250 nM).” left out, “The final spectra from Steps 2 and 3 were corrected using the blank control from Step 1.” left out

[8] = tested on: Aβs, including monomers, dimers, oligomers, and aggregates; test: Fluorescence spectral testing with Aβs; format: binding; conditions: probe 250 nM, Aβ 250 nM, PBS, excitation 420 nm, FIG. 2
Experimental: as §1, §2

[9] = tested on: Aβ plaques and cerebral amyloid angiopathy (CAA); test: Two-photon microscopic imaging of APP/PS1 mouse; format: in vivo; conditions: 15-month old APP/PS1 mouse, FIG. 5B
Experimental: as §4
The accumulation of CRANAD-101 in the brain reached a peak at 10 minutes after i.v. injection (FIG. 5C, panel f). To examine whether CRANAD-101 could label Aβ plaques and cerebral amyloid angiopathy (CAA) in vivo, a similar two-photo microscopic imaging procedure was performed with a 15-month old APP/PS1 mouse.

[10] = target: T4, Aβ40 aggregates (Homo sapiens, UniProt P05067); test: Binding constant (Kd) by fluorescence, Aβ aggregates; conditions: PBS pH 7.4
T4 construct: Synthetic Aβ peptides (1-40/42) were purchased from rPeptide; purchased rPeptide (Bogart, Ga.); host or cells: synthetic peptide
T4 sequence (P05067 672-711 limits assumed): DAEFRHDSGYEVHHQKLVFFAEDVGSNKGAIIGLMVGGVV
Experimental: as §3
as §1, with “Step 3: To the CRANAD-101 solution from Step 2, 10 μL Aβs (25 μM) was added (final concentration 250 nM).” left out, “The final spectra from Steps 2 and 3 were corrected using the blank control from Step 1.” left out

[11] = tested on: Aβ plaques; test: Brain slice testing, fluorescence microscopy of APP/PS1 mouse brain slice; conditions: 11-month old APP/PS1 mouse slice, 25 μM, 30 minutes, FIG. 3A
Experimental: A brain slice of 11-month old APP/PS1 mouse was washed with double-distilled water for 5 minutes, then fixed with 4% formalin for 5 minutes, and washed with double-distilled water. First, a background image of a brain slice was taken using a fluorescence microscope. Next, an image was taken after the slice was incubated with CRANAD-101 (25 μM) for 30 minutes.

Compound: Cc1nn(-c2ccc(OCCCF)cc2)cc1C=CC1=CC(C2CCC2)=[O+][B-](F)(F)O1 [CRANAD-101, (E)-4-(2-(6-cyclobutyl-2,2-difluoro-2H-1,3,2^4-dioxaborinin-4-yl)vinyl)-1-(4-(3-fluoropropoxy)phenyl)-3-methyl-1H-pyrazole]
- emission peak [1]: approximately 550 nm
- excitation peak [1]: approximately 420 nm
- staining of Aβ deposits in AD patient brain slice [2]: can stain diffusible Aβ deposits
- Kd [3]: 11.6 ± 11 nM
- Kd [4]: 780 ± 173 nM
- crossing of the BBB ([5]; 2.0 mg/kg i.v., two-photon, FIG. 5A, 5C): quickly crossed the BBB
- time of peak accumulation in the brain ([5]; after i.v. injection 2.0 mg/kg, FIG. 5C panel f): 10 min
- penetration of the blood-brain barrier and brain accumulation vs other reported 18F labeled curcumin analogues [6]: much higher penetration of the blood-brain barrier (BBB) and brain accumulation
- Kd [7]: 44 ± 18.9 nM
- fluorescence response to Aβs [8]: strong responses to Aβs
- labelling of Aβ plaques and CAA in vivo [9]: clearly highlighted Aβ plaques and CAAs
- Kd [10]: 188 ± 104 nM
- staining of Aβ plaques in brain slice [11]: Aβ plaques could be imaged after the incubation
